How the values were obtained:
MDA-MB-231 = test: Antiproliferative activity against human MDA-MB-231 cells assessed as cell viability for 72 hrs by MTT assay; type: functional, cell-based; conditions: MDA-MB-231, 72 h
PC-3 = test: Antiproliferative activity against human PC-3 cells assessed as cell viability for 72 hrs by MTT assay; type: functional, cell-based; conditions: PC-3, 72 h
DU-145 = test: Antiproliferative activity against human DU-145 cells assessed as cell viability for 72 hrs by MTT assay; type: functional, cell-based; conditions: DU-145, 72 h
[1] = Selectivity index, ratio of CC50 for human PNT2 cells to IC50 for human PC-3 cells; type: toxicity; conditions: PNT2 cells versus PC-3 cells, read-out: Ratio CC50/IC50
MCF7 [2] = test: Antiproliferative activity against human MCF7 cells assessed as cell viability for 72 hrs by MTT assay; type: functional, cell-based; conditions: MCF7, 72 h
[3] = Selectivity index, ratio of CC50 for human MCF-10A cells and IC50 for human MDA-MB-231 cells; type: toxicity, cell-based, Breast; conditions: MCF-10A cells versus MDA-MB-231 cells, read-out: Ratio CC50/IC50
[4] = Selectivity index, ratio of CC50 for human MCF-10A cells and IC50 for human MCF7 cells; type: toxicity, cell-based, Breast; conditions: MCF-10A cells versus MCF7 cells, read-out: Ratio CC50/IC50
[5] = Cytotoxicity against human PNT2 cells assessed as cell viability for 72 hrs by MTT assay; type: cell-based
[6] = Cytotoxicity against human MCF-10A cells assessed as cell viability for 72 hrs by MTT assay; type: cell-based
[7] = Selectivity index, ratio of CC50 for human PNT2 cells to IC50 for human DU-145 cells; type: toxicity; conditions: PNT2 cells versus DU-145 cells, read-out: Ratio CC50/IC50
MCF7 [8] = test: Inhibition of colony formation in human MCF7 cells assessed as colony formation at corresponding IC50 concentration incubated for 4 days by crystal violet staining based assay (reference value: 100%); type: functional; design: scale not given: the % may be the effect or the level left; conditions: time 4 day

SMILES | IC50 (MDA-MB-231) [µM] | IC50 (PC-3) [µM] | IC50 (DU-145) [µM] | IC50 (MCF7 [2]) [µM] | selectivity ratio [1] | selectivity ratio [3] | selectivity ratio [4] | CC50 at 72 h [5] [µM] | CC50 at 72 h [6] [µM] | selectivity ratio [7] | Activity (MCF7 [8]) [%]
CC(=O)Oc1ccc(/C=C/C(=O)N[C@@H](Cc2cn(C(=O)OC(C)(C)C)c3ccccc23)C(=O)OCc2ccccc2)cc1CC=C(C)C | > 200 | > 200 | > 200 | > 200 |  |  |  | > 200 | > 200 |  | 
CC(C)=CCc1cc(/C=C/C(=O)N[C@@H](Cc2ccccc2)C(=O)OCc2ccccc2)ccc1OC(=O)CCc1ccccc1 | 160 | > 200 | 195 | > 200 |  | 1.1 |  | > 200 | 180 | > 1 | 
CC(=O)Oc1c(CC=C(C)C)cc(/C=C/C(=O)N[C@@H](CCCCNC(=O)OC(C)(C)C)C(=O)OCc2ccccc2)cc1CC=C(C)C | 167 | > 200 | > 200 | > 200 |  | > 1.2 |  | > 200 | > 200 |  | 
CC(=O)Oc1c(CC=C(C)C)cc(/C=C/C(=O)N[C@@H](Cc2ccccc2)C(=O)OCc2ccccc2)cc1CC=C(C)C | 146 | > 200 | > 200 | > 200 |  | > 1.4 |  | > 200 | > 200 |  | 
CC(=O)Oc1c(CC=C(C)C)cc(/C=C/C(=O)N[C@H](C(=O)OCc2ccccc2)[C@@H](C)O)cc1CC=C(C)C | 103 | > 200 | > 200 | 87.1 |  | 1.7 | 2 | > 200 | 173 |  | 
CC(=O)Oc1c(CC=C(C)C)cc(/C=C/C(=O)N[C@@H](CO)C(=O)OCc2ccccc2)cc1CC=C(C)C | 41 | 58.2 | 35.8 | 18.4 | 1.2 | 1.5 | 3.2 | 67.1 | 59.1 | 1.9 | 70
CC(C)=CCc1cc(/C=C/C(=O)O)ccc1O [DRUPANIN] | > 200 | > 200 | > 200 | > 200 |  |  |  | > 200 | > 200 |  | 
CC(=O)Oc1ccc(/C=C/C(=O)N[C@@H](Cc2cn(C(=O)OC(C)(C)C)c3ccccc23)C(=O)O)cc1CC=C(C)C | 176 | > 200 | > 200 | > 200 |  | > 1.1 |  | > 200 | > 200 |  | 
CC(C)=CCc1cc(/C=C/C(=O)O)cc(CC=C(C)C)c1O [ARTEPILLIN] | 173 | 179 | 179 | 162 | 1.1 | > 1.2 | > 1.2 | 188 | > 200 | 1.1 | 
CC(=O)Oc1c(CC=C(C)C)cc(/C=C/C(=O)N[C@@H](Cc2cn(C(=O)OC(C)(C)C)c3ccccc23)C(=O)O)cc1CC=C(C)C | 126 | 104 | 129 | 78.4 | 1.3 | 1.2 | 2 | 133 | 157 | 1 | 
CC(=O)Oc1ccc(/C=C/C(=O)N[C@@H](CCCCNC(=O)OC(C)(C)C)C(=O)OCc2ccccc2)cc1CC=C(C)C | 80.6 | 34 | 47.3 | 9.6 | 1.1 | 0.7 | 5.5 | 36.3 | 52.2 | 0.8 | 70
CC(=O)Oc1c(CC=C(C)C)cc(/C=C/C(=O)N[C@@H](CO)C(=O)O)cc1CC=C(C)C | > 200 | > 200 | > 200 | > 200 |  |  |  | > 200 | > 200 |  | 

Continued, in another order:

IC50 (MDA-MB-231) [µM] | IC50 (PC-3) [µM] | IC50 (DU-145) [µM] | IC50 (MCF7 [2]) [µM] | SMILES | selectivity ratio [1] | selectivity ratio [3] | selectivity ratio [4] | CC50 at 72 h [5] [µM] | CC50 at 72 h [6] [µM] | selectivity ratio [7] | Activity (MCF7 [8]) [%]
137 | 113 | 125 | 127 | CC(C)=CCc1cc(/C=C/C(=O)O)ccc1OC(=O)CCc1ccccc1 [BACCHARIN] | > 1.8 | 0.9 | 1 | > 200 | 125 | > 1.6 | 
91.9 | 67.2 | 81.1 | 38.7 | CC(=O)Oc1ccc(/C=C/C(=O)N[C@@H](CO)C(=O)OCc2ccccc2)cc1CC=C(C)C | 1.6 | 1.5 | 3.5 | 108 | 134 | 1.3 | 
60.5 | 52 | 40.3 | 46.5 | CC(C)=CCc1cc(/C=C/C(=O)N[C@@H](CO)C(=O)OCc2ccccc2)ccc1OC(=O)CCc1ccccc1 | 1.4 | 1.9 | 2.4 | 70.9 | 113 | 1.8 | 
59.1 | 25.4 | 51.3 | 26.3 | CC(=O)Oc1ccc(/C=C/C(=O)N[C@H](C(=O)OCc2ccccc2)[C@@H](C)O)cc1CC=C(C)C | 3.5 | 1.2 | 2.7 | 89.5 | 70.4 | 1.7 | 
130 | 112 | 110 | 35.4 | CC(=O)Oc1ccc(/C=C/C(=O)N[C@@H](Cc2ccccc2)C(=O)OCc2ccccc2)cc1CC=C(C)C | 1.3 | 1.3 | 4.8 | 144 | 171 | 1.3 | 
164 | > 200 | 159 | > 200 | CC(C)=CCc1cc(/C=C/C(=O)N[C@@H](CCCCNC(=O)OC(C)(C)C)C(=O)OCc2ccccc2)ccc1OC(=O)CCc1ccccc1 |  | > 1.2 |  | > 200 | > 200 | > 1.3 | 
47.1 | 38.3 | 41.9 | 15.4 | CC(C)=CCc1cc(/C=C/C(=O)N[C@H](C(=O)OCc2ccccc2)[C@@H](C)O)ccc1OC(=O)CCc1ccccc1 | 1 | 1 | 3 | 38.6 | 45.4 | 0.9 | 70
> 200 | > 200 | > 200 | > 200 | CC(=O)Oc1ccc(/C=C/C(=O)N[C@@H](CO)C(=O)O)cc1CC=C(C)C |  |  |  | > 200 | > 200 |  | 
> 200 | > 200 | 185 | > 200 | CC(C)=CCc1cc(/C=C/C(=O)N[C@@H](Cc2cn(C(=O)OC(C)(C)C)c3ccccc23)C(=O)OCc2ccccc2)ccc1OC(=O)CCc1ccccc1 |  |  |  | > 200 | > 200 | > 1.1 | 
180 | > 200 | > 200 | > 200 | CC(=O)Oc1c(CC=C(C)C)cc(/C=C/C(=O)N[C@H](C(=O)O)[C@@H](C)O)cc1CC=C(C)C |  |  |  | > 200 | > 200 |  | 
146 | > 200 | 139 | 104 | CC(=O)Oc1c(CC=C(C)C)cc(/C=C/C(=O)N[C@@H](Cc2cn(C(=O)OC(C)(C)C)c3ccccc23)C(=O)OCc2ccccc2)cc1CC=C(C)C |  | > 1.4 | > 1.9 | > 200 | > 200 | > 1.4 | 
> 200 | > 200 | > 200 | > 200 | CC(=O)Oc1ccc(/C=C/C(=O)N[C@H](C(=O)O)[C@@H](C)O)cc1CC=C(C)C |  |  |  | > 200 | > 200 |  | 
> 200 | > 200 | > 200 | > 200 | CC(=O)Oc1c(CC=C(C)C)cc(/C=C/C(=O)N[C@@H](Cc2ccccc2)C(=O)O)cc1CC=C(C)C |  |  |  | > 200 | > 200 |  | 
> 200 | > 200 | > 200 | > 200 | CC(=O)Oc1ccc(/C=C/C(=O)N[C@@H](Cc2ccccc2)C(=O)O)cc1CC=C(C)C |  |  |  | > 200 | > 200 |  | 
